Assay results taken from patent US20140127157A1, “ANTIVIRAL ACTIVITY OF TYROSINE KINASE INHIBITORS AGAINST HEPATITUS C VIRUS” (priority 2012, published 2014).
Like-named read-outs stand apart in the source and are kept apart here.

Assays:
in vitro = details: human
Excerpt: (§1) The infectious cell culture system for HCV (HCVcc) is based on a unique full length strain of genotype 2a derived from a patient with fulminant hepatitis (JFH-1). HCVcc allows the complete virus life cycle to be studied in cell culture. A chimeric strain of JFH-1, termed Jc1JFH, is capable of more robust growth in tissue culture and can be engineered to encode a reporter gene. The activity of compounds such as nilotinib against HCVcc can be investigated using a Jc1JFH reporter virus encoding luciferase (Table 1). Naïve Huh-7.5 cells are treated with serially diluted compounds in DMSO for 2 h prior to infection with HCVcc. […] Both EC50 and CC50 values are normalized to cells treated with DMSO alone.

HCVcc [1] = test: microbe, parasite or virus in culture; details: for EC50: Hepatitis C virus
Excerpt: as §1

HCVrep = test: HCV replicon (HCVrep) luciferase assay, JFH-1-based replicon cell line; design: species or system Hepatitis C virus (HCV)
Excerpt: (§2) HCVrep comprises a stable cell line harboring a sub-genomic replicon encoding a selectable marker (e.g., neomycin phosphotransferase), a reporter gene (e.g., luciferase) and the minimal HCV replicase proteins, NS3 to NS5B. Since the subgenomic replicon is non-infectious, the HCVrep system is used to study viral RNA replication independently of other stages of the life cycle, including virus entry/assembly/release. […] To determine the effects of compounds such as nilotinib on HCV RNA replication, a stable JFH-1-based replicon cell line encoding luciferase was established.

[2] = Cytotoxicity in HCVrep cell line
Excerpt: as §1, §2

HCVcc [3] = test: Time of addition experiment with HCVcc (FIG. 1); format: cell-based, Hepatitis C virus (HCV); details: treatment 1 (compound during first 4 h of infection) vs treatment 2 (added 4 h post-infection); luciferase at 72 h
Experimental: FIG. 1. The effect of agents added before or after entry of HCV into cells. The presence of compound during both binding and post-binding are indicated by black bars; white bars indicate compounds present only at post-binding. DMSO, dimethyl sulfoxide; 5Ainh, HCV NS5A inhibitor (50×EC50); nilotinib (50×EC50); α-CD81, anti-CD81 antibody (1 μg/mL); α-IgG, iso-type control antibody (1 μg/mL).
To further explore the MOA of compounds such as nilotinib, a time of addition experiment is performed to determine whether the compound acted at an early (i.e., entry) or late (i.e., assembly/release) stage of the virus life cycle. Naive Huh7.5 cells are infected for 4 h with HCVcc in either the presence (treatment 1) or absence (treatment 2) of compound. At 4 h post-infection, compound is then added to the treatment 2 cells. At 72 h post infection, luciferase activity is determined. An inhibitor of viral entry (antibody targeting CD81) and an HCV replication inhibitor (5Ainh) are used as comparators.

HCV entry = format: cell-based, Hepatitis C virus (HCV); details: binding 1.5 h at 4° C., shift to 37° C., compound added at 20 min intervals up to 2 h; luciferase after 48 h
Experimental: The effect of agents added during entry of HCV into cells-. HCV kinetic entry assay in the presence of compounds.
In this assay, infection is synchronized by incubation of cells and virus together for 1.5 h at 4° C. to allow binding, but not subsequent entry steps. After synchronization, unbound virus is removed by washing, and cells are shifted to 37° C. to initiate post-binding events. Compounds are added either immediately prior to (time zero), or at 20 min intervals post-temperature shift for up to 2 h. Compounds are removed at 4 h post-addition and luciferase activity is measured after 48 h of infection. Controls are included, which are known to block various steps of the HCV entry process: heparin sulfate (virus binding), anti-CD81 antibody (early post-virus binding), concanamycin A (ConA; late post-virus binding), bafilomycin (Baf; late post-virus binding), gefitinib (Gef; late post-virus binding). Percent inhibition is determined relative to treatment with compounds during synchronized virus binding at 4° C. Representative data of percent inhibition versus time of addition (FIG. 2) is used to estimate half-maximal times (t1/2) to inhibit HCV entry.

[4] = Table 2, ratio of cytotoxicity to antiviral potency

## Cc1nc(Nc2ncc(C(=O)Nc3c(C)cccc3Cl)s2)cc(N2CCN(CCO)CC2)n1 [Dasatinib, dasatinib]
In vitro
  CC50: 18.7 µM
HCVcc [1]
  CC50/EC50: 12.65
HCVcc [1]; Huh7.5
  EC50: 1.48 µM

## C#Cc1cccc(Nc2ncnc3cc(OCCOC)c(OCCOC)cc23)c1 [Erlotinib, erlotinib]
In vitro
  CC50: > 25 µM
HCVcc [1]; Huh7.5
  EC50: 0.47 µM

## COc1cc2ncnc(Nc3ccc(F)c(Cl)c3)c2cc1OCCCN1CCOCC1 [Gefitinib, gefitinib]
In vitro
  CC50: 10.6 µM

## Cc1ccc(NC(=O)c2ccc(CN3CCN(C)CC3)cc2)cc1Nc1nccc(-c2cccnc2)n1 [Imatinib, imatinib]
HCVrep; at the concentrations tested
  activity against the replicon: did not show activity at the concentrations tested

## Cc1ccc(NC(=O)c2ccc(CN3CCN(C)CC3)cc2)cc1Nc1nc(-c2cccnc2)cs1 [Masitinib, masitinib]
In vitro
  CC50: 6.27 µM
HCVcc [1]; Huh7.5
  EC50: 0.77 µM
HCVcc [1]; [4]
  CC50/EC50: 14.58

## Cc1cn(-c2cc(NC(=O)c3ccc(C)c(Nc4nccc(-c5cccnc5)n4)c3)cc(C(F)(F)F)c2)cn1 [Nilotinib, nilotinib]
[2]
  CC50 at 72 h: 8200 nM
HCVrep; Hepatitis C virus, JFH-1-based replicon cell line, 72 h treatment
  EC50: 4200 nM
HCVcc [3]
  potency when added during versus after HCV entry: significantly more potent when added during the first 4 h of infection
In vitro
  CC50: 8.77 µM
In vitro; HCVcc (CC50, μM), uninfected compound-treated cells, CellTiter Glo
  CC50: 8.8 µM
HCVcc [1]
  CC50/EC50: 219.25
HCVcc [1]; Huh7.5
  EC50: 0.04 µM
HCVcc [1]; Huh7.5, read-out: HCVcc (EC50, μM)
  EC50: 0.04 µM

## Cc1ccc(C(=O)Nc2ccc(CN3CCN(C)CC3)c(C(F)(F)F)c2)cc1C#Cc1cnc2cccnn12 [Ponatinib, ponatinib]
HCVcc [1]; Huh7.5
  EC50: 0.05 µM

## CNC(=O)c1cc(Oc2ccc(NC(=O)Nc3ccc(Cl)c(C(F)(F)F)c3)c(F)c2)ccn1 [Regorafenib, regorafenib]
In vitro
  CC50: > 2.5 µM
HCVcc [1]; Huh7.5
  EC50: 0.33 µM

## Cc1cn(-c2cc(NC(=O)c3ccc(C)c(Nc4nccc(-c5cnccn5)n4)c3)cc(C(F)(F)F)c2)cn1 [Rodotinib, radotinib]
In vitro
  CC50: > 2.5 µM
HCVcc [1]; Huh7.5
  EC50: 0.04 µM

## CNC(=O)c1cc(Oc2ccc(NC(=O)Nc3ccc(Cl)c(C(F)(F)F)c3)cc2)ccn1 [Sorafenib, sorafenib]
In vitro
  CC50: 5.75 µM
HCVcc [1]; Huh7.5
  EC50: 0.47 µM
HCVcc [1]; [4]
  CC50/EC50: 12.23

## CCN(CC)CCNC(=O)c1c(C)[nH]c(/C=C2\C(=O)Nc3ccc(F)cc32)c1C [Sunitinib, sunitinib]
In vitro
  CC50: 3.54 µM
HCVcc [1]; Huh7.5
  EC50: 0.94 µM
HCVcc [1]; [4]
  CC50/EC50: 3.77

## heparin sulfate
HCV entry
  inhibition kinetics of HCV entry versus time of addition (t1/2): effectively blocks infection only when present during virus binding
